The source of these data is patent publication US8901141B2, “Tricyclic compounds having corticotropin-releasing factor antagonistic activity and pharmaceutical compositions containing them” (Takeda Pharmaceutical Company, Limited, priority 2008, dated 2014).

This test deals with T1, human CRF1 receptor (Homo sapiens, UniProt P34998).
T1 construct: expressed in transfected cells; host or cells: CHO cells (membrane fraction)
T1 sequence (P34998 24-415): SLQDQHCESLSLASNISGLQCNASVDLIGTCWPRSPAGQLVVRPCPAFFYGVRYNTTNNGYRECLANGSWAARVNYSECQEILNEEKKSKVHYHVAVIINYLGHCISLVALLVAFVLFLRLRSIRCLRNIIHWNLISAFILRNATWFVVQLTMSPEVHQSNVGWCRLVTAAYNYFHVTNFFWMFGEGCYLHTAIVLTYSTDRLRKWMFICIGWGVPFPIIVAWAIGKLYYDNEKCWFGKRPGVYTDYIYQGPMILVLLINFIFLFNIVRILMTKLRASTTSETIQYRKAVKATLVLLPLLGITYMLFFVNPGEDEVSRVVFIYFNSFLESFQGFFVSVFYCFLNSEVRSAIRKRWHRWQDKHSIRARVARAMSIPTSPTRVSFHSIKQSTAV
Briefly: Measurement of CRF binding inhibitory rate (125I-CRF receptor binding, CHO cellular membrane fraction). To be noted: human CRF1 receptor expressing CHO cellular membrane fraction, 50 pM 125I-CRF; for inhibition at 1 µM: 1.5 h, read-out: Binding inhibitory rates (% inhibition); for inhibition at 1 µM / Binding inhibitory rates (% inhibition): at the presence of 1 μM of a test compound. Here is the method: A receptor binding experiment was carried out using a human CRF1 receptor expressing CHO cellular membrane fraction and ovine CRF, [^125I]-tyr^0(^125I-CRF). 1000 nM of a test compound was incubated with 1 μg of human CRF receptor expressing CHO cellular membrane fraction and 50 pM of ^125I-CRF in a binding assay buffer (50 mM Tris-HCl, 5 mM EDTA, 10 mM MgCl2, 0.05% CHAPS, 0.1% BSA, 0.5 mM PMSF, 0.1 μg/mL pepstatin, 20 μg/mL leupeptin, pH 7.5). In addition, for measuring nonspecific binding (NSB), 0.1 μM unlabelled human Urocortin was incubated with 5 μg of human CRF receptor expressing CHO cellular membrane fraction and 50 pM of ^125I-CRF in a binding assay buffer. After a binding reaction was carried out at room temperature for 1.5 hr, the membrane was entrapped on a glass filter (UniFilter plate GF-C/Perkin Elmer) by suction filtration using a cell harvester (Perkin Elmer), and washed with ice-cooled 50 mM Tris-HCl (pH 7.5). After drying the glass filter, a liquid scintillation cocktail (Microscinti 0, Perkin Elmer) was added, and the radioactivity of ^125I-CRF remaining on a glass filter was measured using Topcount (Perkin Elmer).
(TB-SB)/(TB-NSB)×100 (SB: radioactivity when a compound is added, TB: maximum binding radioactivity, NSB: nonspecific binding radioactivity) were calculated to obtain binding inhibitory rates under the range of the presence from 0.05 nM to 10 μM of each compound. The IC50 values were calculated by using GraphPad Prism software.

Bounds are passed on as bounds.

As for `CCC(OC(C)=O)c1ccc(Cl)c2nc3n(c12)CCCN3c1ccc(Cl)cc1Cl` (single isomer, unassigned; (-)) [Example 239, (−)-1-[9-Chloro-1-(2,4-dichlorophenyl)-1,2,3,4-tetrahydropyrimido[1,2-a]benzimidazol-6-yl]propyl acetate], the inhibition at 1 µM is 90%.
In the case of `CCC(OC(C)=O)c1ccc(Cl)c2nc3n(c12)CCCN3c1ccc(Cl)cc1Cl` (single isomer, unassigned; (+)) [Example 240, (+)-1-[9-Chloro-1-(2,4-dichlorophenyl)-1,2,3,4-tetrahydropyrimido[1,2-a]benzimidazol-6-yl]propyl acetate], the “Binding inhibitory rates (% inhibition)” value was found to be 97%.
Turning to `CCC(O)c1ccc(Cl)c2nc3n(c12)CCCN3c1ccc(Cl)cc1Cl` (stereo not drawn) [Example 112, 1-[9-Chloro-1-(2,4-dichlorophenyl)-1,2,3,4-tetrahydropyrimido[1,2-a]benzimidazol-6-yl]propan-1-ol], the inhibition at 1 µM turned out to be 95%.
Consider `CCC(OC(C)=O)c1ccc(Cl)c2nc3n(c12)CCCN3c1ccc(OC)nc1C` (single isomer, unassigned; (-)) [Example 266, (−)-1-[9-Chloro-1-(6-methoxy-2-methylpyridin-3-yl)-1,2,3,4-tetrahydropyrimido[1,2-a]benzimidazol-6-yl]propyl acetate], for which the inhibition at 1 µM is 82%.
With `COc1ccc(C(O)(C2CC2)C2CC2)c2c1nc1n2CCCN1c1ccc(Cl)cc1Cl` [Example 369, Dicyclopropyl[1-(2,4-dichlorophenyl)-9-methoxy-1,2,3,4-tetrahydropyrimido[1,2-a]benzimidazol-6-yl]methanol], the inhibition at 1 µM turned out to be 96%.
Take `COc1ccc(N2CCCn3c2nc2c(Cl)ccc(C(OCC(F)(F)F)C4CC4)c23)c(Cl)c1` (stereo not drawn) [Example 468, 9-Chloro-1-(2-chloro-4-methoxyphenyl)-6-[cyclopropyl(2,2,2-trifluoroethoxy)methyl]-1,2,3,4-tetrahydropyrimido[1,2-a]benzimidazole]: the half-maximal inhibitory concentration (IC50) (0.05 nM to 10 μM of compound, read-out: IC50 values (CRF binding inhibition)) was below 1 µM.
Turning to `CCC(O)c1ccc(Cl)c2nc3n(c12)CCCN3c1ccc(Cl)cc1Cl` (single isomer, unassigned; (+)) [Example 439, (+)-1-[9-Chloro-1-(2,4-dichlorophenyl)-1,2,3,4-tetrahydropyrimido[1,2-a]benzimidazol-6-yl]propan-1-ol], the “Binding inhibitory rates (% inhibition)” value stood at 84%.
Regarding `CCC(CC)c1ccc(Cl)c2nc3n(c12)CCCCN3c1cnc(N(C)C)cc1C` [Example 25, 5-[10-Chloro-7-(1-ethylpropyl)-2,3,4,5-tetrahydro-1H-[1,3]diazepino[1,2-a]benzimidazol-1-yl]-N,N,4-trimethylpyridin-2-amine], the inhibition at 1 µM was 91%.
Consider `CCC(OC(C)=O)c1ccc(Cl)c2nc3n(c12)CCCN3c1ccc(OC)nc1C` (single isomer, unassigned; (+)) [Example 267, (+)-1-[9-Chloro-1-(6-methoxy-2-methylpyridin-3-yl)-1,2,3,4-tetrahydropyrimido[1,2-a]benzimidazol-6-yl]propyl acetate], for which the “Binding inhibitory rates (% inhibition)” value was determined as 96%.
On to `COc1ccc(N2CCCn3c2nc2c(Cl)ccc(C(O)(C4CC4)C4CC4)c23)c(C)n1` [Example 276, [9-Chloro-1-(6-methoxy-2-methylpyridin-3-yl)-1,2,3,4-tetrahydropyrimido[1,2-a]benzimidazol-6-yl](dicyclopropyl)methanol], for which the inhibition at 1 µM turned out to be 94%.
For `CCC(OC(C)=O)c1ccc(Cl)c2nc3n(c12)CCCN3c1ccc(Cl)cc1Cl` (racemic) [Example 238, 1-[9-Chloro-1-(2,4-dichlorophenyl)-1,2,3,4-tetrahydropyrimido[1,2-a]benzimidazol-6-yl]propyl acetate], the inhibition at 1 µM came out at 98%.
For `CCC(CCO)c1ccc(Cl)c2nc3n(c12)CCCN3c1ccc(Cl)cc1Cl` (stereo not drawn) [Example 450, 3-[9-Chloro-1-(2,4-dichlorophenyl)-1,2,3,4-tetrahydropyrimido[1,2-a]benzimidazol-6-yl]pentan-1-ol], the inhibition at 1 µM was 98%.
Still for that read-out and setting: the result for `Cc1cc(Cl)cc(Cl)c1N1CCn2c1nc1c(Cl)ccc(C(O)(C3CC3)C3CC3)c12` [Example 426, [8-Chloro-1-(2,4-dichloro-6-methylphenyl)-2,3-dihydro-1H-imidazo[1,2-a]benzimidazol-5-yl](dicyclopropyl)methanol] reads 98%; that for `CCN(CC)c1ccc(F)c2nc3n(c12)CCCN3c1ccc(Cl)cc1Cl` [Example 365, 1-(2,4-Dichlorophenyl)-N,N-diethyl-9-fluoro-1,2,3,4-tetrahydropyrimido[1,2-a]benzimidazol-6-amine], 95%.
For the molecule `CCC(OC(C)=O)c1ccc(Cl)c2nc3n(c12)CCCN3c1ccc(OC)nc1C` (racemic) [Example 265, 1-[9-Chloro-1-(6-methoxy-2-methylpyridin-3-yl)-1,2,3,4-tetrahydropyrimido[1,2-a]benzimidazol-6-yl]propyl acetate], the inhibition at 1 µM was determined as 89%.

Usually inhibition stands for the relative decrease from the control value, in per cent. A word on the IC50: it is the concentration at which inhibition is half-maximal.
